This is an account of results in US7417150B2, “Azoles having an insecticidal action” (Bayer CropScience AG, priority 2001, dated 2008).

Assay [1] has as its system Adults of Ctenocephalides felis. In words: Test with cat fleas / oral uptake. It is filed as in vivo. To be noted: 100 ppm in citrated cattle blood, mortality after 24 h, strain "Georgi", at least 25% kill judged effective, read-out: % action (mortality of larvae). How it is done: Test with Cat Fleas/Oral Uptake
To produce a suitable preparation, a suitable solution of active compound is prepared from 20 mg of active compound and 1 ml of DMSO. 20 μl of this formulation are added to 4 ml of citrated cattle blood and stirred.
20 unfed adult fleas (Ctenocephalides felis, strain “Georgi”) are placed into a chamber (Ø 5 cm) whose top and bottom are closed with gauze. A metal cylinder whose underside is covered with parafilm is placed onto the chamber. The cylinder contains the 4 ml of blood/active compound formulation which can be taken up by the fleas through the parafilm membrane. Whereas the blood is warmed to 37° C., the temperature in the area of the flea chambers is adjusted to 25° C. Controls are mixed with the same volume of DMSO, without addition of a compound. The determinations are carried out triplicate.
After 24 h, the mortality in % is determined.
Compounds which effect an at least 25% kill of the fleas within 24 h are judged to be effective.

The test system of assay [2] is Meloidogyne incognita. In words: Meloidogyne test (nematicidal action, gall formation on lettuce roots). To be noted: 20 ppm active compound; 100% = no galls found, 0% = galls as untreated control; lettuce in sand. It counts as in vivo. How it is done:
To produce a suitable preparation of active compound, 1 part by weight of active compound is mixed with the stated amounts of solvent and emulsifier, and the concentrate is diluted with water to the desired concentration.
Containers are filled with sand, solution of active compound, Meloidogyne incognita egg larvae suspension and lettuce seeds. The lettuce seeds germinate and the plants develop. On the roots, galls are formed.
After the desired period of time, the nematicidal action is determined in % using gall formation as a measure. 100% means that no galls were found; 0% means that the number of galls on the treated plants corresponds to that of the untreated control.

The term mortality denotes the percentage killed. On to `CN(Cc1ccc(Cl)nc1)C1=N/C(=N/C#N)SC1` [Example I-1, 4-(N-(6-chloro-3-pyridylmethyl)-N-methyl)amino-2-cyanimino-2,5-dihydro-[1,3]-thiazoline], for which the mortality at 100 ppm in assay [1] came out at 30%.

`CN(Cc1ccc(Cl)nc1)C1=N/C(=N/C#N)SC1` [drawing 50]: the “Kill rate in % after 14 days” value in assay [2] came out at 98%.
